pEC50: −log10 of the molar value. Where two headings read alike, the source gives them in different places.

This assay deals with HSV type1 H29 Strain. The experiment in a line: Yield reduction assay with HSV type 1 H29 strain. It is filed as cell-based, herpes simplex virus type 1. The settings on record: read-out: ED50 (the source's name). From the text: (1) Examples of Mutual Enhancement of the Antiherpetic Activities of 2-Acetylpyridine-4-(2-morpholinoethyl)thiosemicarbazone (compound A) and Acyclovir (ACV).
^a Yield reduction assay with HSV type1 H29 Strain

On to `CC(=NNC(=S)NCCN1CCOCC1)c1ccccn1` [Compound A, 2-Acetylpyridine-4-(2-morpholinoethyl)thiosemicarbazone], for which the pEC50 runs as follows: (Addition: none) 5.30; (Compound A with addition of 0.2 μM ACV) 6.15.
Turning to `Nc1nc2c(ncn2COCCO)c(=O)[nH]1` [ACV, 9-(2-hydroxyethoxymethyl)guanine], the pEC50 (ACV with addition of 1 μM Compound A) was 7.70 and the pEC50 (Addition: none) is 6.22.

Values taken from US4758572A, “Antiviral combinations” (Burroughs Wellcome Co., priority 1983, dated 1988).
